# According to publication PMC5895803, “Inhibition of cancer stem cell like cells by a synthetic retinoid” (Nature Communications, 2018):
# Several values for one entry are separate records, joined by “and”; a condition that tells them apart may be missing. Equal values may be shown once.
# Columns and labels:
# [1] = system: cleaved (active) caspase-3 and PARP; experiment: Western blotting of cleaved caspase-3 and PARP; assay type: cell-based, murine; conditions: 10 μM, 24 h
# Source text: To quantify the expression levels of RARα, RARβ, RARγ, caspase-3, cleaved caspase-3, and cleaved PARP, cells were lysed with RIPA lysis buffer. […] Primary antibodies were detected with mouse anti-Rabbit IgG-HRP (1:1000, Santa Cruz, sc-2357), donkey anti-goat IgG-HRP (1:1000, Santa Cruze, sc-2020), or anti-Mouse IgG-HRP (1:1000, Santa Cruz, sc-2005).
# Supplementary Figure 37. WYC-209 induces cleaved caspase-3 and PARP expressions.
# (a) Representative images of cleaved PARP and cleaved caspase-3 protein expressions in control B16-F1 cells cultured on 2D rigid dishes and treated 0.1% DMSO, 1 or 10 µM WYC-209, WYC-209A or WYC-209B for 24 h. (b) Representative images of cleaved PARP and cleaved caspase-3 protein expression of control B16-F1 cells seeded in 3D soft fibrin gels for […]
# hours. (c, d) Quantification of expression levels of cleaved PARP and cleaved caspase-3 in (a). (e, f) Quantification of expression levels of cleaved PARP and cleaved caspase-3 in (b).
# All values are normalized by GAPDH. Mean ± s.e.m.; 3 separate experiments; ns, not […]
# (§1) (1 picture or pasted object on this page, not shown here)
# HaCaT cells = experiment: Non-cancerous human epidermal HaCaT cells, 2D rigid dishes and 3D soft fibrin gels; assay type: cell-based; conditions: for HaCaT cell numbers on 2D rigid plastic / HaCaT colony growth in 3D soft fibrin gel: 10 μM; for HaCaT colony growth in 3D soft fibrin gel: day 7; for Inhibitory effects towards non-cancerous HaCaT cells: 2D rigid dishes and 3D soft fibrin gels
# Method: Supplementary Figure 21. WYC-209 has less inhibitory effects on non-cancerous human epidermal cell line HaCaT. (a) Non-cancerous human epidermal HaCaT cells were seeded into 3D soft fibrin gel and treated with 0.1, 1, or 10 μM of WYC-209, WYC-209A, or WYC-209B on day 0, and colony sizes were quantified on day 7.
# Bright field images were representative images of colonies on day 7. Scale bars, 50 μm. (b) Quantitation of cell numbers per view field of HaCaT cells plated on 2D rigid plastic. Cell nucleus were stained with DAPI. None: medium only; DMSO: medium containing 0.1% DMSO. Mean ± s.e.m.; n= 5 samples; 3 separate experiments; * P<0.05, *** P<0.001 (Student’s t-test). Note that even at 10 μM concentration no […]
# compounds have less inhibitory effects on these non-cancerous human epidermal […]
# as §1
# [2] = system: TRCs of A2780, A549, MCF-7, MDA-MB-435s, A375; experiment: Colony growth of TRCs of five human cancer cell lines (summary statements); assay type: cell-based
# Method: Salmon fibrinogen and thrombin were purchased from Reagent Proteins (CA, USA). 3D fibrin gels were prepared as described previously[5],[6]. In brief, fibrinogen was diluted into 2 mg mL^−1 with T7 buffer (pH 7.4, 50 mM Tris, 150 mM NaCl). Cells were detached from 2D rigid dishes and cell density was adjusted to 10^4 cells per mL. Fibrinogen and cell solution mixture were made by mixing the same volume of fibrinogen solution and cell solution, resulting in 1 mg mL^−1 fibrinogen and 5000 cells per mL in the mixture fibrin gels. A volume of 50 μL cell/fibrinogen mixture was seeded into each well of 96-well plate and mixed well with pre-added 1 μL thrombin (100 U mL^−1). The cell culture plate was then incubated in 37 °C cell culture incubator for 10 min. Finally, 200 μL of DMEM medium containing 10% FBS and antibiotics was added.
# Control B16-F1, A2780, A549, MCF-7, MDA-MB-435s, and A375 cells were cultured in 90-Pa fibrin gels to form round colonies and then treated with 0.1, 1, and 10 μM WYC-209, WYC-209A, and WYC-209B or 0.1% DMSO on day 3, which was washed out with pre-warmed PBS on day 4 with fresh medium, and then kept culturing till day 7 or day 9.
# [3] = system: B16-F1 TRCs lung metastases; experiment: Lung metastasis of B16-F1 TRCs in immune-competent mice; assay type: in vivo, C57BL/6 mice; conditions: for Metastases in H&E-stained organ sections: 0.022 mg kg-1; for Mice with lung metastases: 8 mice per group, day 30
# Source text: Four- to six-week-old female and male C57BL/6 mice were used in mice experiment. Mice were randomized into different groups. In metastasis experiment, B16-F1 cell spheroids were selected from 3D 90-Pa fibrin gels and pipetted to single cells. These TRCs were harvested and the cell number was counted under microscopy. The cells were then suspended in PBS with appropriate cell density. Thirty thousand TRCs were intravenously injected into the tail vein of each wild-type C57BL/6 mouse. Five days later, inoculated mice were intravenous implanted with 0.022 mg kg^−1 WYC-209, 0.22 mg kg^−1 WYC-209, or 0.1% DMSO every two days. The mice were euthanized and examined for lung tumor formation at day 30. In treated TRCs injected in vivo experiments, B16-F1 cells were seeded into 3D 90-Pa fibrin gels and treated with 10 µM WYC-209 or 0.1% DMSO on day 3, then isolated treated TRCs colonies on day 5 and pipetted into single cell. 30,000 of TRCs were intravenously injected into the tail vein of each wild-type C57BL/6 mouse. No blinding was performed in the mice experiments.
# Lung, liver, spleen, bone, stomach, and brain of C57BL/6 mice were fixed by 4% paraformaldehyde then were embedded in paraffin and cut to ~4 µm thick sections by Thermo FINESSE 325. Organ sections were stained by H&E and slides were evaluated for tumor formation by a veterinary pathologist blinded to sample identity.
# B16-F1 TRCs = experiment: Cell cycle analysis (BrdU flow cytometry), S phase of TRCs; assay type: cell-based, murine; conditions: 10 μM, 24 hours
# Method: For Annexin-V and PI staining to quantify cell apoptosis, treated TRCs were isolated from 3D fibrin gel by using 5 mg mL^−1 Dispase II (Sigma), cells were labeled with FITC-conjugated Annexin-V and PI according to the manufacturer’s instruction (Biolegend). Data were acquired on a BD Cantoll (BD biosciences) and analyzed with FlowJo software. For BrdU staining to quantify cell proliferation, cells were labeled with FITC-conjugated anti-BrdU antibody according to the manufacturer’s instruction (FITC BrdU Flow Kit, BD Biosciences) and then data were acquired on an Accuri C6 (BD Biosciences) and analyzed with BD Accuri C6 software.
# Supplementary Figure 13. WYC-209 blocks S phase of TRCs. Different cancer cell lines cultured in 3D soft fibrin gel on day 0, then treated with 0.1, 1, or 10 μM WYC-209, WYC-209A, WYC-209B on day 4, isolated cells after 24 hours and labeled with FITC-conjugated anti-BrdU antibody for cell cycle analysis, 10 μM ATRA and Tazarotne as positive controls. (a) Representative images of flow cytometry in different conditions. (b) Quantification of S phase ratio in different conditions. Mean ± s.e.m.; n=3 independent experiments; * P<0.05; ** P<0.01; *** P<0.001 (Student’s t-test).
# as §1
# [4] = 0.022 mg kg−1 i.v. every two days from day 5 after 30,000 TRCs i.v.
# [5] = 0.22 mg kg−1 i.v. every two days from day 5 after 30,000 TRCs i.v.
Compound,Cleaved (active) caspase-3 and PARP [1],HaCaT cell numbers on 2D rigid plastic (HaCaT cells),HaCaT colony growth in 3D soft fibrin gel (HaCaT cells),Inhibitory effects towards non-cancerous HaCaT cells (HaCaT cells),Colony growth after washout and re-plating ([2]; pretreated at 10 μM),Colony growth after washout and re-plating ([2]; pretreated at 0.1 or 1 μM),Metastases in H&E-stained organ sections [3],"Mice with lung metastases [3, 4]","Mice with lung metastases [3, 5]",Decrease of S phase of TRCs (B16-F1 TRCs),"IC50 ([2]; Homo sapiens, 0 h, treated on day 0, read-out: IC50 (range over five human TRC types))","inhibition at 10 µM ([2]; Homo sapiens, 10 μM, read-out: Growth inhibition of all human TRCs)","TRC growth after drug washout ([2]; treated day 3, washed out day 4, 5 days after washout)",Average lung weight versus DMSO group ([3]; 0.22 mg kg−1),Lung metastases of melanoma TRCs abrogated ([3]; 0.22 mg kg−1),"Lung metastases in untreated mice injected with pretreated TRCs ([3]; TRCs pretreated with 10 µM in fibrin gels day 3-5, 30,000 TRCs i.v., 8 mice)"
CCOC(=O)c1cnc(C#Cc2ccc3c(c2)C(C)(C)CC[S@+]3[O-])nc1 [WYC-209A],increase,no reduction in cell numbers,still some colony growth,much less inhibitory effects,completely inhibited,partially inhibited,exhibited metastases in the lungs but not in other organs,three out of eight,one out of eight,completely abolished S phase,–,–,–,–,–,–
CCOC(=O)c1cnc(C#Cc2ccc3c(c2)C(C)(C)CC[S@@+]3[O-])nc1 [WYC-209B],increase,no reduction in cell numbers,still some colony growth,much less inhibitory effects,completely inhibited,partially inhibited,exhibited metastases in the lungs but not in other organs,three out of eight,one out of eight,completely abolished S phase,–,–,–,–,–,–
CCOC(=O)c1cnc(C#Cc2ccc3c(c2)C(C)(C)CC[S+]3[O-])nc1 (centres unmarked) [WYC-209],increase,no reduction in cell numbers,still some colony growth,much less inhibitory effects,completely inhibited,partially inhibited,–,four out of eight and 4/8,one out of eight and 1/8,completely abolished S phase,100 to 520 nM,100%,failed to resume growth,less,87.5%,no lung metastases
